Laboratory results from ChEMBL document CHEMBL2074114, “Inhibitory effect of novel oral hypoglycemic agent nateglinide (AY4166) on peptide transporters PEPT1 and PEPT2” (Eur J Pharmacol, 2000).

Columns and labels:
Assay type in all cases: functional, cell-based
[1] = target: T1, Solute carrier family 15 member 2 (Rattus norvegicus) (UniProt Q63424); assay: TP_TRANSPORTER: inhibition of Gly-Sar uptake (Gly-Sar: 20 uM, Tolbutamide: 1000uM) in PEPT2-expressing LLC-PK1 cells
T1 sequence (whole entry): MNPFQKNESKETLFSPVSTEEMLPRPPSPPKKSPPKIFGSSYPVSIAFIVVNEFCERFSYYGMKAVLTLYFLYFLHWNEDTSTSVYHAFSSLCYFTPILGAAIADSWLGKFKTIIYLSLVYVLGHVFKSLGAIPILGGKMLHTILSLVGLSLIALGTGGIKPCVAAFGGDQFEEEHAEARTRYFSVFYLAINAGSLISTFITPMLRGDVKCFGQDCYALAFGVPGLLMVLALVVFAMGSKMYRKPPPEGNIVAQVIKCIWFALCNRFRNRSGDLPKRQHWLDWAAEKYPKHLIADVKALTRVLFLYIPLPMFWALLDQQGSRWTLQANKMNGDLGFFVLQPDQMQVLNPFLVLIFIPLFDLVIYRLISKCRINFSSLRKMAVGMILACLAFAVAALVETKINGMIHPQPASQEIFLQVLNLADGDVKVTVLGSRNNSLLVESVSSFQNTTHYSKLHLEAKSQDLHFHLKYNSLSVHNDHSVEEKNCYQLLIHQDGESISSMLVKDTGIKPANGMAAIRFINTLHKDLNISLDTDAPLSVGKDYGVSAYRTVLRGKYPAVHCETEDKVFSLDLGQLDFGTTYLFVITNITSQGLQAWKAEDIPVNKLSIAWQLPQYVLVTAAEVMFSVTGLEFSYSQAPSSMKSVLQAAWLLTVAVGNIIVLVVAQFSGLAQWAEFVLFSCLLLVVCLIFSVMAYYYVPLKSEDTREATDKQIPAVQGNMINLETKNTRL

[2] = target: T2, Solute carrier family 15 member 1 (Rattus norvegicus) (UniProt P51574); assay: TP_TRANSPORTER: inhibition of Gly-Sar uptake (Gly-Sar: 20 uM, Tolbutamide: 1000uM) in PEPT1-expressing LLC-PK1 cells
T2 sequence (whole entry): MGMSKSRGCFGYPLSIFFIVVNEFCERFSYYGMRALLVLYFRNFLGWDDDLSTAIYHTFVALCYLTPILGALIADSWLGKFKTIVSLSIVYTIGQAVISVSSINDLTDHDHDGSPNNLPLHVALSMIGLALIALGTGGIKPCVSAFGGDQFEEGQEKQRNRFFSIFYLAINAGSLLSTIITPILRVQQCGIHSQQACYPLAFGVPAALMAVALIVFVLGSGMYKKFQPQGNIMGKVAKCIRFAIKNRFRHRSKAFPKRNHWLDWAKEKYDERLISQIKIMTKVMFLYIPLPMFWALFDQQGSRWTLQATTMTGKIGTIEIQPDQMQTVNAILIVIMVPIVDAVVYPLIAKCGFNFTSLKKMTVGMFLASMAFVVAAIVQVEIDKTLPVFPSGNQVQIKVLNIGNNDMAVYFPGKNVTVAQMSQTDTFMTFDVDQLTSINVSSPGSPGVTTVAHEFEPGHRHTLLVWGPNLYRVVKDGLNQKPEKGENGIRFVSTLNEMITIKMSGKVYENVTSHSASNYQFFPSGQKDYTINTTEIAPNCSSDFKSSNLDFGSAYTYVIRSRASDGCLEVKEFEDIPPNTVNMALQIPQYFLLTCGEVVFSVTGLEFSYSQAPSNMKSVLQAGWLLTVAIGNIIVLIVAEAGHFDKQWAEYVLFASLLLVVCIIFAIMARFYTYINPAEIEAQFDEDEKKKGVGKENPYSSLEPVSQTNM

[3] = target: T2, Solute carrier family 15 member 1 (Rattus norvegicus); assay: TP_TRANSPORTER: inhibition of Gly-Sar uptake (Gly-Sar: 20 uM, Chlorpropamide: 1000uM) in PEPT1-expressing LLC-PK1 cells
[4] = target: T1, Solute carrier family 15 member 2 (Rattus norvegicus); assay: TP_TRANSPORTER: inhibition of Gly-Sar uptake (Gly-Sar: 20 uM, Chlorpropamide: 1000uM) in PEPT2-expressing LLC-PK1 cells
[5] = target: T3, Solute carrier family 15 member 2 (Rattus norvegicus, UniProt Q63424); assay: TP_TRANSPORTER: inhibition of Gly-Sar uptake (Gly-Sar: 20 uM) in PEPT2-expressing LLC-PK1 cells
T3 sequence (Q63424 whole entry): T1 sequence (whole entry)

[6] = target: T1, Solute carrier family 15 member 2 (Rattus norvegicus); assay: TP_TRANSPORTER: uptake in PEPT2-expressing LLC-PK1 cells
[7] = target: T4, Solute carrier family 15 member 1 (Rattus norvegicus, UniProt P51574); assay: TP_TRANSPORTER: inhibition of Gly-Sar uptake (Gly-Sar: 20 uM) in PEPT1-expressing LLC-PK1 cells
T4 sequence (P51574 whole entry): T2 sequence (whole entry)

[8] = target: T2, Solute carrier family 15 member 1 (Rattus norvegicus); assay: TP_TRANSPORTER: uptake in PEPT1-expressing LLC-PK1 cells

CCCCNC(=O)NS(=O)(=O)c1ccc(C)cc1
Activity [1]: inhibitor [+]
Activity [2]: inhibitor [+]

CCCNC(=O)NS(=O)(=O)c1ccc(Cl)cc1
Activity [3]: inhibitor [+]
Activity [4]: inhibitor [+]

CC(C)[C@H]1CC[C@H](C(=O)N[C@H](Cc2ccccc2)C(=O)O)CC1 [NATEGLINIDE]
IC50 [5]: 70 µM
Activity [6]: is not a substrate [-]
IC50 [7]: 160 µM
Activity [8]: is not a substrate [-]
